Experimental data published in publication PMC13065503.

Test: Cys/Cys side-chain stapling of bis-cysteine Omomyc mutants by S-alkylation with bis(bromomethyl)arenes (1.25 eq): 4,4'-bis(bromomethyl)biphenyl for i,i+7 or 1,3-bis(bromomethyl)benzene (with 2 eq TCEP) for i,i+4; pH 8
Settings: the molecule shown is the open-chain precursor, 100 mM aq NH4HCO3 pH 8 / 25% MeCN, 0.1 mM

Substance | ring closure, isolated yield (22-membered ring) [%] | ring closure, isolated yield (36-membered ring) [%]
H-AMADIGSMAC(SH)EENC(SH)KRRTHNVLERQRRNELKRSFFALRDQIPELENNEKAPKVVILKKATAYILSVQAETQKLISEIDLLRKQNEQLKHKLEQLRNSAA-OH | 38 | –
H-AMADIGSMATEENC(SH)KRRC(SH)HNVLERQRRNELKRSFFALRDQIPELENNEKAPKVVILKKATAYILSVQAETQKLISEIDLLRKQNEQLKHKLEQLRNSAA-OH | 26 | –
H-AMADIGSMATEENC(SH)KRRTHNC(SH)LERQRRNELKRSFFALRDQIPELENNEKAPKVVILKKATAYILSVQAETQKLISEIDLLRKQNEQLKHKLEQLRNSAA-OH | – | 67
H-AMADIGSMATEENVKRRTHNC(SH)LERQRRC(SH)ELKRSFFALRDQIPELENNEKAPKVVILKKATAYILSVQAETQKLISEIDLLRKQNEQLKHKLEQLRNSAA-OH | – | 69
H-AMADIGSMATEENVKRRTHNC(SH)LERQRRC(SH)ELKRSFFALRDQIPELENNEKAPKVVILKKATAYILSVQAETQKLISEIDLLRKQNEQLKHKLEQLRNSAAPAAKRVKLD-OH | – | 60
H-AMADIGSPAAKRVKLDMATEENVKRRTHNC(SH)LERQRRC(SH)ELKRSFFALRDQIPELENNEKAPKVVILKKATAYILSVQAETQKLISEIDLLRKQNEQLKHKLEQLRNSAA-OH | – | 46
